Measurements as given in PubChem BioAssay AID588617 (The Scripps Research Institute Molecular Screening Center, 2011).

Molecular target: Krueppel-like factor 5 (Homo sapiens) (UniProt Q13887)
Assay: KLF5 protein abundance by immunoblot – western blot, chemiluminescence, DLD-1 cells, counter-screen for KLF5 inhibitor project, late-stage follow-up (AID 588617)
Conditions: 24 h, at 10 µM, active compounds read high

Sequence of Krueppel-like factor 5 (Homo sapiens) (Q13887 whole entry, looked up): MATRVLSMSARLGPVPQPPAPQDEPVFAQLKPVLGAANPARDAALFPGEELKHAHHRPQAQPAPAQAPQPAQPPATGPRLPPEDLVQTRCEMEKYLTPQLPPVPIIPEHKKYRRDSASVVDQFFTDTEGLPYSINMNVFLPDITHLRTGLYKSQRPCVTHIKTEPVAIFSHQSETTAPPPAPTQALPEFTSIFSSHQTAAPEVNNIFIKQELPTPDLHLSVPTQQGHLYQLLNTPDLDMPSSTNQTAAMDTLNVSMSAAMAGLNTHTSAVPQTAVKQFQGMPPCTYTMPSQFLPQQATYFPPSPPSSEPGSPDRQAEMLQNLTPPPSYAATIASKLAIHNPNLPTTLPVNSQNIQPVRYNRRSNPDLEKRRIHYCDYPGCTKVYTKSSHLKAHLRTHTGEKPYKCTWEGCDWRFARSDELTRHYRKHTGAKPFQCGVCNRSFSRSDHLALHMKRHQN

`CN(C(=O)COC(=O)/C=C/c1cccc([N+](=O)[O-])c1)C1CCS(=O)(=O)C1` (stereo unspecified) gave an inhibition of 30.1%.
